Assay results taken from article PMC10349072, “Distinct evolution of type I glutamine synthetase in Plasmodium and its species-specific requirement” (Nature Communications, 2023).

How the values were obtained:
[1] = target: T1, Plasmodium falciparum glutamine synthetase lacking first peptide insert (ΔI1rPfGS) (Plasmodium falciparum, UniProt C0H551, DEL174-196); assay type: biochemical
T1 construct: gene PF3D7_0922600; recombinant, 6xHis tag, first peptide insert (amino acids 174–196) deleted

[2] = target: T2, Plasmodium falciparum glutamine synthetase (rPfGS) (Plasmodium falciparum, UniProt C0H551); test: biochemical
T2 construct: gene PF3D7_0922600
T2 sequence (C0H551 1-543): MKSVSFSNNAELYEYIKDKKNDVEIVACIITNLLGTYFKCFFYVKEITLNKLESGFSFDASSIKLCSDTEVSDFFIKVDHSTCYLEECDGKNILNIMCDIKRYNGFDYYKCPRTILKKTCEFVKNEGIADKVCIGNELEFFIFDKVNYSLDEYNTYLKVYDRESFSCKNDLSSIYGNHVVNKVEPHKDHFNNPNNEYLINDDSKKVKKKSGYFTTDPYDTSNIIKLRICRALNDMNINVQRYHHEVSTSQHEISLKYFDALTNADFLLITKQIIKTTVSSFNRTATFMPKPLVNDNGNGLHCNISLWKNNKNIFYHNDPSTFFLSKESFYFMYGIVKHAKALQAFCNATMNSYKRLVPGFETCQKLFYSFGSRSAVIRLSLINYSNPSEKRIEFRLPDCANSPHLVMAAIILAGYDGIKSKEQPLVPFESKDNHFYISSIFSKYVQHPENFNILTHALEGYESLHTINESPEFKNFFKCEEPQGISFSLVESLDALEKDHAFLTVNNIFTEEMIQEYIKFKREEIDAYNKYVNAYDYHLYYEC

[3] = target: T3, Plasmodium berghei glutamine synthetase (rPbGS) (Plasmodium berghei, UniProt A0A509ANX1); test: GS enzyme assay (Pi release/HPLC) with pre-incubation with ATP and MgCl2; kinetic Ki; assay type: biochemical
T3 construct: gene PBANKA_0823500; recombinant with N-terminal 6xHis tag, expressed in E. coli
T3 sequence (A0A509ANX1 1-553): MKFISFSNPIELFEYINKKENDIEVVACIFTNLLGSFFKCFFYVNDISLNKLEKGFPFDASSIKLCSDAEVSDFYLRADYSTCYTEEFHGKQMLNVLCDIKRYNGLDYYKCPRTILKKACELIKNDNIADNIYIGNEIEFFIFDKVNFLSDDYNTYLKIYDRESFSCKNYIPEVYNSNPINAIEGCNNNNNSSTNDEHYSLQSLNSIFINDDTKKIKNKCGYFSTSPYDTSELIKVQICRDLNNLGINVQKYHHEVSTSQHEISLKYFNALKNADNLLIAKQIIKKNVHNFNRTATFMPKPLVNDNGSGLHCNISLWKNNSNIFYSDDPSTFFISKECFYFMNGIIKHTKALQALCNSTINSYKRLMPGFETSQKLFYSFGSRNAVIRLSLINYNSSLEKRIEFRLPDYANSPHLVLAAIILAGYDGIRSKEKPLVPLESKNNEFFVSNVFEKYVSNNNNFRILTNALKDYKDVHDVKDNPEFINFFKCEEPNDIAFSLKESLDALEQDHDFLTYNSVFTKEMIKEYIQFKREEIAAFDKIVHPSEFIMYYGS

[4] = target: T4, E. coli glutamine synthetase (rE. coli GS) (Escherichia coli, UniProt P0A9C5); test: feedback inhibition enzyme assay at […]; assay type: biochemical
T4 construct: gene glnA; recombinant with 6xHis tag
T4 sequence (P0A9C5 2-469): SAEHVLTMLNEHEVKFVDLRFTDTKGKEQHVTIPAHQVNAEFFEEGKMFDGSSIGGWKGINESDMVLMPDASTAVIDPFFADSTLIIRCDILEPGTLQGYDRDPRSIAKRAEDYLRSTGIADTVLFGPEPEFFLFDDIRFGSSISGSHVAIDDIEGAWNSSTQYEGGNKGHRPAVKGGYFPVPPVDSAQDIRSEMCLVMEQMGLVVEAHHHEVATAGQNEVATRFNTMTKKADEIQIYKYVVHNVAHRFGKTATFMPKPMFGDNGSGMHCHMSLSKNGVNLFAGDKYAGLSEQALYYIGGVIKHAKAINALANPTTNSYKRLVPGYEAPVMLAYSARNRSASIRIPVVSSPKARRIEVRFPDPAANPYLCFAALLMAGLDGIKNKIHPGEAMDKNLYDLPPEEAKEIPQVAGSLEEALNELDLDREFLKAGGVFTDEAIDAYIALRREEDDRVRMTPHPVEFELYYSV

Row | SMILES | GS enzyme assay, percent activity vs control [1] | Ki [2] [µM] | Ki [3] [µM] | % [4]
1 | CP(=O)(O)CC[C@H](N)C(=O)O [PPT, Phosphinothricin] | ΔI1rPfGS behaved like rPfGS in terms of specific activity (Fig. 3b), inhibition by MSO and PPT (Fig. 3c) | 2.31 ± 1.1 | 8.07 ± 3.31 | –
2 | C[C@H](N)C(=O)O [alanine] | – | – | – | 30–40% inhibition at 5 mM
3 | Nc1ncnc2c1ncn2[C@@H]1O[C@H](COP(=O)(O)O)[C@@H](O)[C@H]1O [AMP, adenosine monophosphate] | – | – | – | 30–40% inhibition at 5 mM
4 | CS(=N)(=O)CC[C@H](N)C(=O)O (stereo partly drawn) [MSO, L-Methionine sulfoximine] | ΔI1rPfGS behaved like rPfGS in terms of specific activity (Fig. 3b), inhibition by MSO and PPT (Fig. 3c) | – | 5.44 ± 1.07 | –
